According to patent publication US9949479B2 (priority 2015, dated 2018):
Values joined by “and” are separate entries in the source; they are usually repeats but may differ in a detail not shown here. Identical values can stand only once. Like-named read-outs stand apart in the source and are kept apart here.

How the values were obtained:
powdery mildew [1] = assay type: in vivo
wheat scab [2] = assay type: in vivo, Fusarium spp.
wheat scab [3] = assay type: in vivo, Fusarium spp.; details: Serial 6: preparation 100; jinggangmycin 0, metconazole 20 g ai./mu
powdery mildew [4] = assay type: in vivo; remark: listed apart in the source
leaf blight [5] = assay type: in vivo
rust [6] = assay type: in vivo
rust [7] = assay type: in vivo; remark: listed apart in the source
[8] = set-up: species or system wheat; details: in vivo
leaf blight [9] = assay type: in vivo; remark: listed apart in the source
powdery mildew [10] = assay type: in vivo; details: dose as in E154
rust [11] = assay type: in vivo; remark: listed apart in the source
Fusarium asiaticum = test: microbe, parasite or virus in culture; assay type: cell-based
wheat scab [12] = assay type: in vivo, Fusarium spp.; remark: listed apart in the source
wheat scab [13] = assay type: in vivo, Fusarium spp.; details: Serial 6: preparation 100 g/mu; jinggangmycin 0, metconazole 20 g ai./mu
powdery mildew [14] = assay type: in vivo; remark: listed apart in the source
wheat scab [15] = assay type: in vivo, Fusarium spp.; remark: listed apart in the source
leaf blight [16] = assay type: in vivo; details: Serial 6: preparation 100; jinggangmycin 0, metconazole 20 g ai./mu
powdery mildew fungus = assay type: in vivo; details: seed treatment; dose as in E133
[17] = set-up: species or system wheat; details: in vivo; remark: listed apart in the source
powdery mildew [18] = assay type: in vivo; details: Serial 6: preparation 100 g/mu; jinggangmycin 0, metconazole 20 g ai./mu
leaf blight [19] = assay type: in vivo; remark: listed apart in the source
rust [20] = assay type: in vivo; details: Serial 6: preparation 100 g/mu; jinggangmycin 0, metconazole 20 g ai./mu
wheat scab [21] = assay type: in vivo, Fusarium spp.; remark: listed apart in the source
[22] = assay type: in vivo, wheat; details: dose as in E162
[23] = assay type: in vivo, wheat
rust [24] = assay type: in vivo; details: dose as in E154
leaf blight [25] = assay type: in vivo; details: dose as in E154
leaf rust fungus = assay type: in vivo; details: seed treatment; dose as in E133
rust [26] = assay type: in vivo; details: Serial 6: preparation 100; jinggangmycin 0, metconazole 20 g ai./mu
powdery mildew [27] = assay type: in vivo; remark: listed apart in the source
[28] = Serial 21: metconazole 20 g ai./mu alone
[29] = Serial 22: metconazole 18 g ai./mu alone
[30] = Serial 23: metconazole 16 g ai./mu alone
[31] = Serial 24: metconazole 10 g ai./mu alone
[32] = Serial 25: metconazole 9 g ai./mu alone
[33] = Serial 26: metconazole 8 g ai./mu alone
[34] = Serial 27: metconazole 6 g ai./mu alone
[35] = Serial 28: metconazole 3 g ai./mu alone
[36] = Serial 10: preparation 30 g/mu, metconazole 6 g ai./mu alone
[37] = Serial 11: preparation 22.5 g/mu, metconazole 4.5 g ai./mu alone
[38] = Serial 12: preparation 15 g/mu, metconazole 3 g ai./mu alone
[39] = Serial 8: preparation 50 g/mu, metconazole 10 g ai./mu alone
[40] = Serial 10: preparation 15 g/mu, metconazole 3 g ai./mu alone
[41] = Serial 9: preparation 37.5 g/mu, metconazole 7.5 g ai./mu alone
[42] = Serial 9: preparation 100 g/mu, metconazole 20 g ai./mu alone
[43] = Serial 10: preparation 80 g/mu, metconazole 16 g ai./mu alone
[44] = Serial 11: preparation 40 g/mu, metconazole 8 g ai./mu alone
[45] = Serial 12: preparation 20 g/mu, metconazole 4 g ai./mu alone
[46] = Fusarium asiaticum, read-out: Growth Inhibition Rate F.a

## CC1(C)CCC(Cc2ccc(Cl)cc2)C1(O)Cn1cncn1 (stereo not shown) [Metconazole]
Powdery mildew [1]; [28]
  Disease Index Prevention Effect % Powdery Mildew: 80.1%
Powdery mildew [1]; [29]
  Disease Index Prevention Effect % Powdery Mildew: 74.6%
Powdery mildew [1]; [30]
  Disease Index Prevention Effect % Powdery Mildew: 71.4%
Powdery mildew [1]; [31]
  Disease Index Prevention Effect % Powdery Mildew: 63.4%
Powdery mildew [1]; [32]
  Disease Index Prevention Effect % Powdery Mildew: 60.8%
Powdery mildew [1]; [33]
  Disease Index Prevention Effect % Powdery Mildew: 58.6%
Powdery mildew [1]; [34]
  Disease Index Prevention Effect % Powdery Mildew: 51.8%
Powdery mildew [1]; [35]
  Disease Index Prevention Effect % Powdery Mildew: 26.4%
Wheat scab [2]; [36]
  Disease Index Prevention Effect % Head Blight: 52.3%
Wheat scab [2]; [37]
  Disease Index Prevention Effect % Head Blight: 49.6%
Wheat scab [2]; [38]
  Disease Index Prevention Effect % Head Blight: 28.6%
Wheat scab [3]
  Disease Index Prevention Effect % Head Blight: 82.4%
Powdery mildew [4]; [39]
  Disease Index Prevention Effect % Powdery Mildew: 83.2%
Powdery mildew [4]; [40]
  Disease Index Prevention Effect % Powdery Mildew: 69.2%
Leaf blight [5]; [39]
  Disease Index Prevention Effect % Leaf Blight: 72.8%
Leaf blight [5]; [41]
  Disease Index Prevention Effect % Leaf Blight: 70.6%
Leaf blight [5]; [40]
  Disease Index Prevention Effect % Leaf Blight: 68.3%
Rust [6]; [42]
  Disease Index Prevention Effect % Rust: 84.4%
Rust [6]; [43]
  Disease Index Prevention Effect % Rust: 77.3%
Rust [6]; [44]
  Disease Index Prevention Effect % Rust: 70.6%
Rust [6]; [45]
  Disease Index Prevention Effect % Rust: 63.8%
Rust [7]; [39]
  Disease Index Prevention Effect % Rust: 84.4%
Rust [7]; [41]
  Disease Index Prevention Effect % Rust: 77.3%
Rust [7]; [40]
  Disease Index Prevention Effect % Rust: 70.6%
[8]
  Thousand Kernel Weight: 43.4 g and 42.8 g and 42.4 g and 40.4 g
Leaf blight [9]; [42]
  Disease Index Prevention Effect % Leaf Blight: 72.8%
Leaf blight [9]; [43]
  Disease Index Prevention Effect % Leaf Blight: 70.6%
Leaf blight [9]; [44]
  Disease Index Prevention Effect % Leaf Blight: 68.3%
Leaf blight [9]; [45]
  Disease Index Prevention Effect % Leaf Blight: 50.8%
Powdery mildew [10]
  Disease Index Prevention Effect % Powdery Mildew: 52.6% and 65.3% and 71.8% and 82.2%
Rust [11]; [28]
  Disease Index Prevention Effect % Rust: 91.2%
Rust [11]; [29]
  Disease Index Prevention Effect % Rust: 88.4%
Rust [11]; [30]
  Disease Index Prevention Effect % Rust: 85.6%
Rust [11]; [31]
  Disease Index Prevention Effect % Rust: 82.1%
Rust [11]; [32]
  Disease Index Prevention Effect % Rust: 82.4%
Rust [11]; [33]
  Disease Index Prevention Effect % Rust: 79.4%
Rust [11]; [34]
  Disease Index Prevention Effect % Rust: 72.6%
Rust [11]; [35]
  Disease Index Prevention Effect % Rust: 30.2%
Fusarium asiaticum
  ED50: 0.114 µg/mL and 0.112 µg/mL and 0.116 µg/mL
Fusarium asiaticum; [46]
  inhibition at 0.0625 µg/mL: 30.7%
  inhibition at 0.125 µg/mL: 58.6%
  inhibition at 0.25 µg/mL: 75.6%
  inhibition at 0.5 µg/mL: 89.2%
  inhibition at 1 µg/mL: 95.9%
Wheat scab [12]; [39]
  Disease Index Prevention Effect % Head Blight: 75.6%
Wheat scab [12]; [40]
  Disease Index Prevention Effect % Head Blight: 39.1%
Wheat scab [13]
  Disease Index Prevention Effect % Head Blight: 83.4%
Powdery mildew [14]; [42]
  Disease Index Prevention Effect % Powdery Mildew: 83.2%
Powdery mildew [14]; [43]
  Disease Index Prevention Effect % Powdery Mildew: 75.4%
Powdery mildew [14]; [44]
  Disease Index Prevention Effect % Powdery Mildew: 69.2%
Powdery mildew [14]; [45]
  Disease Index Prevention Effect % Powdery Mildew: 60.6%
Wheat scab [15]; [42]
  Disease Index Prevention Effect % Head Blight: 78.2%
Wheat scab [15]; [43]
  Disease Index Prevention Effect % Head Blight: 71.2%
Wheat scab [15]; [44]
  Disease Index Prevention Effect % Head Blight: 67.1%
Wheat scab [15]; [45]
  Disease Index Prevention Effect % Head Blight: 52.0%
Leaf blight [16]
  Disease Index Prevention Effect % Leaf Blight: 80.6%
Powdery mildew fungus
  Incidence Prevention Effect % Powdery Mildew: 75.0% and 68.5% and 61.0% and 40.0%
[17]
  Thousand Kernel Weight: 43.2 g and 42.6 g and 39.8 g
Powdery mildew [18]
  Disease Index Prevention Effect % Powdery Mildew: 98.2%
Leaf blight [19]; [28]
  Disease Index Prevention Effect % Leaf Blight: 80.5%
Leaf blight [19]; [29]
  Disease Index Prevention Effect % Leaf Blight: 80.2%
Leaf blight [19]; [30]
  Disease Index Prevention Effect % Leaf Blight: 79.6%
Leaf blight [19]; [31]
  Disease Index Prevention Effect % Leaf Blight: 75.3%
Leaf blight [19]; [32]
  Disease Index Prevention Effect % Leaf Blight: 75.0%
Leaf blight [19]; [33]
  Disease Index Prevention Effect % Leaf Blight: 74.3%
Leaf blight [19]; [34]
  Disease Index Prevention Effect % Leaf Blight: 70.2%
Leaf blight [19]; [35]
  Disease Index Prevention Effect % Leaf Blight: 28.1%
Rust [20]
  Disease Index Prevention Effect % Rust: 100%
Wheat scab [21]; [28]
  Disease Index Prevention Effect % Head Blight: 75.1%
Wheat scab [21]; [29]
  Disease Index Prevention Effect % Head Blight: 74.9%
Wheat scab [21]; [30]
  Disease Index Prevention Effect % Head Blight: 73.2%
Wheat scab [21]; [31]
  Disease Index Prevention Effect % Head Blight: 70.1%
Wheat scab [21]; [32]
  Disease Index Prevention Effect % Head Blight: 67.2%
Wheat scab [21]; [33]
  Disease Index Prevention Effect % Head Blight: 65.1%
Wheat scab [21]; [34]
  Disease Index Prevention Effect % Head Blight: 54.8%
Wheat scab [21]; [35]
  Disease Index Prevention Effect % Head Blight: 28.3%
[22]
  Grain Toxin Content: 2.01 μg/g of kernels and 2.24 μg/g of kernels and 2.38 μg/g of kernels and 2.94 μg/g of kernels
[23]; [28]
  Grain Toxin Content (mg of DON/Kg of grain): 1.11 mg of DON/Kg of grain
  Rate of Decrease in Toxin Content in Grains (%): 82.8%
[23]; [29]
  Grain Toxin Content (mg of DON/Kg of grain): 0.99 mg of DON/Kg of grain
  Rate of Decrease in Toxin Content in Grains (%): 84.7%
[23]; [30]
  Grain Toxin Content (mg of DON/Kg of grain): 1.08 mg of DON/Kg of grain
  Rate of Decrease in Toxin Content in Grains (%): 83.3%
[23]; [31]
  Grain Toxin Content (mg of DON/Kg of grain): 1.34 mg of DON/Kg of grain
  Rate of Decrease in Toxin Content in Grains (%): 79.3%
[23]; [32]
  Grain Toxin Content (mg of DON/Kg of grain): 1.56 mg of DON/Kg of grain
  Rate of Decrease in Toxin Content in Grains (%): 75.9%
[23]; [33]
  Grain Toxin Content (mg of DON/Kg of grain): 1.61 mg of DON/Kg of grain
  Rate of Decrease in Toxin Content in Grains (%): 75.1%
[23]; [34]
  Grain Toxin Content (mg of DON/Kg of grain): 1.89 mg of DON/Kg of grain
  Rate of Decrease in Toxin Content in Grains (%): 70.7%
[23]; [35]
  Grain Toxin Content (mg of DON/Kg of grain): 3.22 mg of DON/Kg of grain
  Rate of Decrease in Toxin Content in Grains (%): 50.2%
Rust [24]
  Disease Index Prevention Effect % Rust: 63.0% and 68.2% and 76.1% and 88.2%
Leaf blight [25]
  Disease Index Prevention Effect % Leaf Blight: 56.2% and 70.4% and 73.7% and 80.0%
Leaf rust fungus
  Incidence Prevention Effect % Rust: 85.5% and 82.0% and 71.0% and 54.5%
Rust [26]
  Disease Index Prevention Effect % Rust: 85.0%
Powdery mildew [27]; [36]
  Disease Index Prevention Effect % Powdery Mildew: 60.6%
Powdery mildew [27]; [37]
  Disease Index Prevention Effect % Powdery Mildew: 58.6%
Powdery mildew [27]; [38]
  Disease Index Prevention Effect % Powdery Mildew: 45.1%
